For this assay, the target named is T1, AML (Amycolatopsis mediterranei lipase) (Amycolatopsis mediterranei, UniProt A0A0H3DES9).
T1 construct: gene AMED_7492; recombinant, pET-49b(+), E. coli BL21(DE3) cytosol; glutathione agarose, tag cut off with PreScission protease
Description: p-nitrophenyl ester hydrolysis assay, relative activity. The conditions noted are these: 50 mM Tris pH 7.5, 37 °C, 10 min, 20 mM substrate. It is filed as biochemical.

T1 sequence (A0A0H3DES9 entry or part of it): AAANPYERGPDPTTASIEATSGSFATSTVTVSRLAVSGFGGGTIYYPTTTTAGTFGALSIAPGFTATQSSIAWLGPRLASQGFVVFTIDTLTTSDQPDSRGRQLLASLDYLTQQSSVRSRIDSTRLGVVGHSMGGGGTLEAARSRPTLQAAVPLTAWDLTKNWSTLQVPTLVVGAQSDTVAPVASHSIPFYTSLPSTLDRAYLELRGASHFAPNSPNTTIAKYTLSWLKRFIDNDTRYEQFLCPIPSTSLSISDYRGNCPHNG

Take `CCCCCCCC(=O)Oc1ccc([N+](=O)[O-])cc1` [p-nitrophenyl octanoate]: the “relative activity (%)” value (reference substrate for relative activity) is listed as “relative activity (%) was calculated using p-nitrophenyl octanoate (C-8) as the reference, highest activity, substrate”.
On to `CC(=O)Oc1ccc([N+](=O)[O-])cc1` [p-nitrophenyl acetate], for which the “relative activity (%)” value is reported as “experimentally low activity of AML observed towards p-nitrophenyl acetate”.

Source of the values: PMC7851449, “An extracellular lipase from Amycolatopsis mediterannei is a cutinase with plastic degrading activity” (Computational and Structural Biotechnology Journal, 2021).
